Test results published in article PMC6689897, “Drugging an undruggable pocket on KRAS” (Proceedings of the National Academy of Sciences of the …, 2019).
pKd: −log10 of the molar value. Values joined by “and” are separate entries in the source; they are usually repeats but may differ in a detail not shown here. Identical values can stand only once. Like-named read-outs stand apart in the source and are kept apart here.

Key:
Experiment in all cases: ITC
Assay type in all cases: binding
GCP-KRASwt = GCP-KRASwt (Homo sapiens, UniProt P01116); details: for pKd: 25°C
Experimental: (§1) 80 difference spectrum. Mixtures of four fragments (each at 250 µM) were incubated in 25
(§2) 82 a mixture of GCP-KRASG12D and GDP-KRASG12V (each 4 µM). Binders were identified
(§3) 83 by comparing pre-recorded reference spectra with the STD difference spectrum.
(§4) 84 Deconvolution and confirmation of primary FBS hits obtained from STD-NMR and
(§5) 85 MST was performed using 2D 1H/15N TROSY NMR experiments(2) collected on a
(§6) 86 Bruker Avance III 600 MHz spectrometer equipped with a 5 mm z-gradient TCI cryo-
(§7) 87 probe. Samples were prepared directly before data acquisition using a Tecan Freedom
(§8) 88 Evo pipetting system and delivered by a Bruker Sample Rail to the magnet. Each sample
(§9) 89 contained either 50 µM 15N labeled GDP-KRASG12D or GCP-KRASG12D in 25 mM Tris-
(§10) 90 d11, 100 mM NaCl, 2 mM MgCl2, 0.5 mM TCEP pH 7.4 and 8% (v/v) D2O. Proteins
(§11) 91 were incubated with 500 µM fragment in a 2.5 mm NMR tube at 298K and 1%
(§12) 92 d6DMSO. Spectra were recorded with 32 transients and 64 data points in the indirect
(§13) 93 dimension. Processing and analysis were accomplished with Topspin 3.0 (Bruker
(§14) 94 BioSpin). Binders were identified by manual comparison of spectra in the presence of a
(§15) 95 fragment and the respective reference spectrum. All confirmed binders to 15N labeled
(§16) 96 GDP-KRASG12D show also chemical shift perturbations in the presence of 15N labeled
(§17) 97 GDP-KRASG12V and are therefore non-selective.
(§18) 98 Measurement of dissociation constants KD for the compounds synthesized. NMR
(§19) 99 was initially the only method that could provide K Ds for the weakly binding molecules to
(§20) 100 support compound optimization. 1H/15N SoFast HMQC experiments(3) were recorded in
(§21) 101 3mm NMR tubes (170µL filling) at a protein concentration of 70-100µM. Spectra were
(§22) 102 recorded on a Avance III 700MHz spectrometer equipped with a cryogenically cooled
(§23) 103 5mm TCI probe and 48 scans, 128 f1 increments and 2k data points in f2. Total
(§24) 104 acquisition time was 22 minutes. 4 – 6 titration points were performed w ith individual
(§25) 105 samples for each titration point made from 50mM DMSO -d6 stock solutions. Total
(§26) 106 DMSO-d6 concentration was kept constant by backfilling every sample to a total of 4%
(§27) 107 DMSO. KDs were calculated from the differences in chemical shift induced by t he small
(§28) 108 molecules upon interacting with the protein. Average chemical shifts from the 1H and 15N
(§29) 109 dimension were calculated according to the following equation:
(§30) 110 ∆δobs = √[δH2 + (α ∙δN)2] with α set to 0.14
(§31) 111 The Δδobs values at the respective ligand concentrations and the total concentration
(§32) 112 of protein allow a fit to the KD value of the ligand as long as it is binding under fast
(§33) 113 exchange conditions as was the case for most of the compounds tested.(4) Usually Δδobs
(§34) 115 following equation was used to determine the individual KDs:
(§35) 116 ∆δobs = ∆δmax [([P]t + [L]t + KD) − [([P]t + [L]t + KD)2 − 4([P]t[L]t)]1/2]/2[P]t
(§36) 119 Calorimetric experiments were performed on a Microcal PEAQ-ITC calorimeter
(§37) 120 (MicroCalTM, LLC Northampton, MA). Protein solutions were measured in 20 mM
(§38) 121 HEPES, 150 mM NaCl, 3% DMSO, pH 7.5. All measurements were carried out at 25°C.
(§39) 122 Titrations were performed in inverse mode. The cell was loaded with compound solutions
(§40) 123 in the range of 10 to 100 µM. All injections were performed using an initial injection of
(§41) 124 0.5 μL followed by 19 injections of 2 μL of protein in the range of 130-500 µM. The data
(§42) 125 were analyzed with the MicroCal PEAQ-ITC analysis software package. The first data
(§43) 126 point was excluded from the analysis. Thermodynamic parameters were calculated (ΔG =
(§44) 127 ΔH - TΔS = -RTlnKB, where ΔG, ΔH and ΔS are the changes in free energy, enthalpy and
(§45) 128 entropy of binding, respectively).
(§46) 130 Protein purification, nucleotide exchange and crystallization
(§47) 131 The KRAS construct, based on uniprot identifier P01116 -2 (KRAS4-B) amino acids
(§48) 134 G12V) were expressed with an N-terminal His6-tag followed by a TEV (tobacco etch

GDP-KRASwt = GDP-KRASwt (Homo sapiens, UniProt P01116); details: 25°C
Experimental: as §1, §2, §3, §4, §5, §6, §7, §8, §9, §10, §11, §12, §13, §14, §15, §16, §17, §18, §19, §20, §21, §22, §23, §24, §25, §26, §27, §28, §29, §30, §31, §32, §33, §34, §35, §36, §37, §38, §39, §40, §41, §42, §43, §44, §45, §46, §47, §48

GDP-NRASwt = GDP-NRASwt (Homo sapiens, UniProt P01111, C118S); details: for pKd: 25°C
Experimental: as §1, §2, §3, §4, §5, §6, §7, §8, §9, §10, §11, §12, §13, §14, §15, §16, §17, §18, §19, §20, §21, §22, §23, §24, §25, §26, §27, §28, §29, §30, §31, §32, §33, §34, §35, §36, §37, §38, §39, §40, §41, §42, §43, §44, §45, §46, §47, §48

GCP-NRASwt = GCP-NRASwt (Homo sapiens, UniProt P01111, C118S); details: 25°C
Experimental: as §1, §2, §3, §4, §5, §6, §7, §8, §9, §10, §11, §12, §13, §14, §15, §16, §17, §18, §19, §20, §21, §22, §23, §24, §25, §26, §27, §28, §29, §30, §31, §32, §33, §34, §35, §36, §37, §38, §39, §40, §41, §42, §43, §44, §45, §46, §47, §48

GDP-HRASwt = GDP-HRASwt (Homo sapiens, UniProt P01112); details: 25°C
Experimental: as §1, §2, §3, §4, §5, §6, §7, §8, §9, §10, §11, §12, §13, §14, §15, §16, §17, §18, §19, §20, §21, §22, §23, §24, §25, §26, §27, §28, §29, §30, §31, §32, §33, §34, §35, §36, §37, §38, §39, §40, §41, §42, §43, §44, §45, §46, §47, §48

GCP-HRASwt = GCP-HRASwt (Homo sapiens, UniProt P01112); details: 25°C
Experimental: as §1, §2, §3, §4, §5, §6, §7, §8, §9, §10, §11, §12, §13, §14, §15, §16, §17, §18, §19, §20, §21, §22, §23, §24, §25, §26, §27, §28, §29, §30, §31, §32, §33, §34, §35, §36, §37, §38, §39, §40, §41, §42, §43, §44, §45, §46, §47, §48

GCP-KRASG12D = GCP-KRASG12D (Homo sapiens, UniProt P01116, G12D)
Experimental: as §1, §2, §3, §4, §5, §6, §7, §8, §9, §10, §11, §12, §13, §14, §15, §16, §17, §18, §19, §20, §21, §22, §23, §24, §25, §26, §27, §28, §29, §30, §31, §32, §33, §34, §35, §36, §37, §38, §39, §40, §41, §42, §43, §44, §45, §46, §47, §48

GDP-KRASG12D = GDP-KRASG12D (Homo sapiens, UniProt P01116, G12D); details: 25°C
Experimental: as §1, §2, §3, §4, §5, §6, §7, §8, §9, §10, §11, §12, §13, §14, §15, §16, §17, §18, §19, §20, §21, §22, §23, §24, §25, §26, §27, §28, §29, §30, §31, §32, §33, §34, §35, §36, §37, §38, §39, §40, §41, §42, §43, §44, §45, §46, §47, §48

[1] = 25°C, read-out: KD(ITC) GCP-KRASG12D

Chain of GDP-NRASwt (P01111 1-172 C118S): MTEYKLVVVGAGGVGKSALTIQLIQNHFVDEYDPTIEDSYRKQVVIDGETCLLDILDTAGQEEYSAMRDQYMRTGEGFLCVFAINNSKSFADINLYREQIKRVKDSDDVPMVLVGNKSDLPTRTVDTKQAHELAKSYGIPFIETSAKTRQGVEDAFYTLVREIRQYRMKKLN
Chain of GCP-KRASwt (P01116 1-169 isoform P01116-2): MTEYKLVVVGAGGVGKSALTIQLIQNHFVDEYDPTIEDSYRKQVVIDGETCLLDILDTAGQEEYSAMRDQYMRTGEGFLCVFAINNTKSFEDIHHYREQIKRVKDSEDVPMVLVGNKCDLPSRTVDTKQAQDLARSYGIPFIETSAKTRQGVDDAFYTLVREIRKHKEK
Chain of GCP-KRASG12D (P01116 1-169 isoform P01116-2 G12D): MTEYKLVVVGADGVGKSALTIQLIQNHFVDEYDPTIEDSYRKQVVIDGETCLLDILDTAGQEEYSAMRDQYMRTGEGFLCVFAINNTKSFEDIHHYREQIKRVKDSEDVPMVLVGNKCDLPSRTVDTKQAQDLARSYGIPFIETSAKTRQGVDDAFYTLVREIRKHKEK
Chain of GDP-HRASwt (P01112 1-166): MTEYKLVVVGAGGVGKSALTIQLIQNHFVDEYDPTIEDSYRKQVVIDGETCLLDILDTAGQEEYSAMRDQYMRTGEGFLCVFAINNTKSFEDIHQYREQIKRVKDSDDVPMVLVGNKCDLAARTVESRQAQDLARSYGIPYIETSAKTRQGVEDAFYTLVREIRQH
Chain of GCP-HRASwt (P01112 1-166): as above
Chain of GCP-NRASwt (P01111 1-172 C118S): as the sequence (P01111 1-172 C118S) above
Chain of GDP-KRASwt (P01116 1-169 isoform P01116-2): as the sequence (P01116 1-169 isoform P01116-2) above
Chain of GDP-KRASG12D (P01116 1-169 isoform P01116-2 G12D): as the sequence (P01116 1-169 isoform P01116-2 G12D) above

Structure (SMILES) | selectivity of binding to GCP-KRAS^wt (active KRAS^wt) (GCP-KRASwt) | pKd (GCP-KRASwt) | pKd (GDP-KRASwt) | selectivity window to inactive NRAS^wt (GDP-NRASwt) | pKd (GDP-NRASwt) | pKd (GCP-NRASwt) | pKd (GDP-HRASwt) | pKd (GCP-HRASwt) | pKd (GCP-KRASG12D; [1]) | pKd (GCP-KRASG12D; read-out: KD GTP-KRAS^G12D as measured by ITC) | pKd (GDP-KRASG12D)
Cn1cnc(Cn2ccc3ccc(CNCc4[nH]c5ccccc5c4[C@H]4NC(=O)c5ccc(O)cc54)cc32)c1 [Compound 1] | 5- to 10 fold and 10 fold | 5.12 | 5.96 | 5- to 10 fold | 5.08 | 5.89 | 5.60 | 6.24 | 6.13 | 6.12 | 5.70
CN(C)Cc1[nH]c2ccccc2c1[C@H]1NC(=O)c2ccc(O)cc21 [Compound 18] |  | 4.31 | 4.82 |  | 4.48 | 4.48 | 4.27 | 5.17 | 4.66 and 4.70 and 4.69 |  | 4.54
